The values below come from patent publication US20260001849A1, “NOVEL B0AT1 INHIBITOR” (MITSUBISHI TANABE PHARMA CORPORATION, priority 2023, published 2026).

Usually IC50 stands for the concentration at which inhibition is half-maximal.

Like-named read-outs stand apart in the source and are kept apart here.

The test has as its target T1, Human BOAT1 (Homo sapiens, UniProt Q695T7).
T1 construct: expressed in transfected cells
T1 sequence (Q695T7 1-634): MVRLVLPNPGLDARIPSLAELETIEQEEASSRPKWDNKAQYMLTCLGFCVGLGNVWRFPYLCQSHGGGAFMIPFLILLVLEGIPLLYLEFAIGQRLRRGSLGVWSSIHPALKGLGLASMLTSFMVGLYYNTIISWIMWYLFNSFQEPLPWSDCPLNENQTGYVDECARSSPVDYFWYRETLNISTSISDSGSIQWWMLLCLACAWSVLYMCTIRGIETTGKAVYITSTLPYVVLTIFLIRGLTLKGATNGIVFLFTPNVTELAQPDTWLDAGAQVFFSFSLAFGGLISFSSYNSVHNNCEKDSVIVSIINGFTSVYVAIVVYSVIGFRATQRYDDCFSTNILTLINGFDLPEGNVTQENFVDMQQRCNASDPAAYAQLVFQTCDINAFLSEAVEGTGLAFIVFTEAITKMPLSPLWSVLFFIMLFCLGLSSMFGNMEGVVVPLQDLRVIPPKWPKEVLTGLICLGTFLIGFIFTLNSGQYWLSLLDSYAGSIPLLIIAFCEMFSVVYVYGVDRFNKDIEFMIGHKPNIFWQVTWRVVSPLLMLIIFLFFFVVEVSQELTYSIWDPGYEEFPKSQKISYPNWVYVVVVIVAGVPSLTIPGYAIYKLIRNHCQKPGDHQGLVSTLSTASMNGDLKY
The test can be described thus: hBOAT1 inhibitory test (phenylalanine uptake). It counts as cell-based. Conditions: Human BOAT1 stable expression CHO cells, phenylalanine 0.25 mM, read-out: hB0AT1 IC50. How it is done: A test compound dissolved in dimethyl sulfoxide (DMSO) was added to a 96 well plate for solid phase radioactivity measurement containing a scintillator at the bottom of the well (final concentration of DMSO 0.5%). DMSO alone as a control and DMSO containing N-(4-bromophenyl)-3,5-dichloro-2-hydroxybenzamide (final concentration […]) for the measurement of BOAT1 non-specific uptake were similarly added at 0.5 μL per well. Human BOAT1 stable expression CHO cells suspended in a buffer (buffer containing 96 mM sodium chloride, 2 mM potassium chloride, 1.8 mM calcium chloride, 1 mM magnesium chloride, 0.01% bovine serum albumin, and 10 mM 2-[4-(2-hydroxyethyl)-1-piperazinyl]ethanesulfonic acid) were added by 90 μL to 75000 cells/well. After standing at ordinary temperature for 30 min or longer, the cells were subjected to a phenylalanine uptake experiment. A buffer containing L-phenylalanine and [3,4,5-3H]-L-phenylalanine was added by 10 μL per well (final concentration of phenylalanine 0.25 mM), and the radioactivity of the plate bottom surface at ordinary temperature was measured with a scintillation counter over time, and the radioactivity value after 100 to 200 min was analyzed.

Where [1] appears, read: [3H]-L-phenylalanine uptake, radioactivity after 100 to 200 min.

Regarding `CCC1c2ccc(CC(=O)O)cc2CCN1C(=O)CNC(=O)/C=C/c1ccc(C(F)(F)F)cc1` (stereo not shown) [I-216], the IC50 under setting [1] was determined as 358 nM.

In the case of `O=C(O)CNc1ccc2c(c1)CN(C(=O)CNC(=O)/C=C/c1ccc(C(F)(F)F)cc1)CC2` [I-217], under setting [1], the concentration for half-maximal inhibition (IC50) worked out at 202 nM. The same measure, in the same setting: the same measure for `Cc1nn(CC(=O)O)c2c1CN(C(=O)CNC(=O)/C=C/c1ccc(C(F)(F)F)cc1)CC2` [I-219]: 256 nM. Take `O=C(O)CCc1cc2c(s1)CN(C(=O)CNC(=O)/C=C/c1ccc(C(F)(F)F)cc1)CC2` [I-220]: the IC50 under setting [1] is 100 nM.

With `O=C(O)Cc1cc2c(cc1Cl)CN(C(=O)CNC(=O)/C=C/c1ccc(C(F)(F)F)cc1F)CC2` [I-221], the IC50 under setting [1] came out at 71 nM. Still for that read-out and setting: the same measure for `N#Cc1cc2c(cc1CC(=O)O)CCN(C(=O)CNC(=O)/C=C/c1ccc(I)cc1)C2` [I-222]: 107 nM; for `CCC(F)(F)c1ccc(/C=C/C(=O)NCC(=O)N2CCc3cc(CC(=O)O)ccc3C2)cc1` [I-227]: 667 nM; for `O=C(O)CCCCc1ccc2c(c1)CCN(C(=O)CNC(=O)/C=C/c1ccc(C(F)(F)F)cc1)C2` [I-228]: 462 nM. Same read-out and setting: the result for `O=C(/C=C/c1ccc(C(F)(F)F)cc1)NCC(=O)N1CCCC(C23CCC(C2)C3C(=O)O)C1` (stereo not shown) [I-229] reads 152 nM; that for `Cc1cc2c(cc1CC(=O)O)CCN(C(=O)CNC(=O)/C=C/c1ccc(C(F)(F)F)cc1)C2` [I-230], 124 nM; that for `O=C(O)CCc1cccc2c1CCN2C(=O)CNC(=O)/C=C/c1ccc(C(F)(F)F)cc1F` [I-245], 45 nM.

On to `O=C(O)CCc1cccc2c1CCN2C(=O)CNC(=O)/C=C/c1ccc(C(F)(F)F)cc1` [I-246], for which the half-maximal inhibitory concentration (IC50) under setting [1] worked out at 44 nM.

Take `O=C(/C=C/c1ccc(C(F)(F)F)cc1F)NCC(=O)N1CCN(Cc2ccc(C(=O)O)cc2)CC1c1ccc(Cl)cc1` (stereo not shown) [I-251]: the IC50 under setting [1] worked out at 366 nM.

`CC(C)(CCN1CCN(C(=O)CNC(=O)/C=C/c2ccc(C(F)(F)F)cc2F)C(c2ccc(Cl)cc2)C1)C(=O)O` (stereo not shown) [I-254]: the IC50 (phenylalanine uptake) is 97 nM. Still for that read-out and setting: the result for `O=C(O)CCCN1CCN(C(=O)CNC(=O)/C=C/c2ccc(C(F)(F)F)cc2F)C(c2cccc(C3CC3)c2)C1` (stereo not shown) [I-256] reads 48 nM. As to `CN1CCN(C(=O)CNC(=O)/C=C/c2ccc(C(F)(F)F)cc2F)CC1c1cccc(C(=O)O)c1` (stereo not shown) [I-258], the concentration for half-maximal inhibition (IC50) (phenylalanine uptake) came to 1330 nM. `CC1(C)CN(C(=O)CNC(=O)/C=C/c2ccc(C(F)(F)F)cc2F)[C@@H](c2ccccc2)CN1CCCC(=O)O` [I-259]: the IC50 (phenylalanine uptake) was found to be 140 nM. On to `O=C(O)Cc1ccccc1C1=CCCN(C(=O)CNC(=O)/C=C/c2ccc(C(F)(F)F)cc2F)C1` [I-260], for which the IC50 (phenylalanine uptake) worked out at 638 nM. Consider `O=C(O)CCCN1CCN(C(=O)CNC(=O)/C=C/c2ccc(C(F)(F)F)cc2F)C(c2cccc(C(F)(F)F)c2)C1` (stereo not shown) [I-262], for which the half-maximal inhibitory concentration (IC50) (phenylalanine uptake) turned out to be 125 nM. Take `O=C(O)CCCN1CCN(C(=O)CNC(=O)/C=C/c2ccc(C(F)(F)F)cc2F)[C@@H](c2ccc(C3CC3)cc2)C1` [I-263]: the concentration for half-maximal inhibition (IC50) (phenylalanine uptake) was determined as 18 nM. On the same count and under the same terms, the same measure for `NC(=O)Cc1ccc2c(c1)CCN(C(=O)CNC(=O)/C=C/c1ccc(C(F)(F)F)cc1)C2` [I-273, (E)-N-[2-[6-(2-amino-2-oxoethyl)-3,4-dihydro-1H-isoquinolin-2-yl]-2-oxoethyl]-3-[4-(trifluoromethyl)phenyl]prop-2-enamide]: 22 nM; for `O=C(/C=C/c1ccc(C(F)(F)F)cc1)NCC(=O)N1CCn2ncc(CCC(=O)N3CCCC3)c2C1` [I-274]: 34 nM.

Turning to `CN(C)C(=O)CCc1cnn2c1CN(C(=O)CNC(=O)/C=C/c1ccc(C(F)(F)F)cc1)CC2` [I-275], the IC50 (phenylalanine uptake) worked out at 78 nM. Same read-out and setting: the result for `NC(=O)Cc1cc(F)c2c(c1)CCN(C(=O)CNC(=O)/C=C/c1ccc(C(F)(F)F)cc1)C2` [I-276] reads 17 nM. Still for that read-out and setting: the result for `CNC(=O)Cc1ccc2c(c1)CCN(C(=O)CNC(=O)/C=C/c1ccc(C(F)(F)F)cc1)C2` [I-277] reads 30 nM.

For `NC(=O)Cc1ccc2c(c1)CN(C(=O)CNC(=O)/C=C/c1ccc(C(F)(F)F)cc1)CC2` [I-278], the half-maximal inhibitory concentration (IC50) (phenylalanine uptake) was 40 nM. The same measure, in the same setting: the result for `CN(C)C(=O)Cc1cc(Cl)c2c(c1)CCN(C(=O)CNC(=O)/C=C/c1ccc(C(F)(F)F)cc1F)C2` [I-279] reads 21 nM; that for `O=C(/C=C/c1ccc(C(F)(F)F)cc1F)NCC(=O)N1CCc2cc(CC(=O)NCCO)cc(Cl)c2C1` [I-280], 19 nM; that for `CONC(=O)Cc1cc(Cl)c2c(c1)CCN(C(=O)CNC(=O)/C=C/c1ccc(C(F)(F)F)cc1F)C2` [I-281], 7 nM. The same measure, in the same setting: the same measure for `CNC(=O)Cn1cc2c(n1)CN(C(=O)CNC(=O)/C=C/c1ccc(C(F)(F)F)cc1)CC2` [I-282]: 700 nM; for `CNC(=O)Cn1ncc2c1CN(C(=O)CNC(=O)/C=C/c1ccc(C(F)(F)F)cc1)CC2` [I-283]: 256 nM; for `CNC(=O)Cc1nc2c(s1)CN(C(=O)CNC(=O)/C=C/c1ccc(C(F)(F)F)cc1F)CC2` [I-284]: 25 nM. With `C[C@@H]1CN(C(=O)CNC(=O)/C=C/c2ccc(C(F)(F)F)cc2F)[C@@H](c2ccccc2)CN1CC#CC(=O)O` [I-320], the 50% inhibitory concentration (IC50) (phenylalanine uptake) stood at 352 nM.

Take `CNC(=O)Cc1cc(CC(=O)O)cc2c1CN(C(=O)CNC(=O)/C=C/c1ccc(C(F)(F)F)cc1F)CC2` [I-336]: where the note is “phenylalanine uptake”, the IC50 is 661 nM.

For `C[C@@H]1CN(C(=O)CNC(=O)/C=C/c2ccc(C(F)(F)F)cc2F)[C@@H](c2ccccc2)CN1CCC(C)(C)C(=O)O` [I-344], the IC50 (phenylalanine uptake) came out at 122 nM. Same read-out and setting: the result for `CC(CCN1C[C@H](c2ccccc2)N(C(=O)CNC(=O)/C=C/c2ccc(C(F)(F)F)cc2F)C[C@H]1C)C(=O)O` (stereo partly shown) [I-345] reads 1780 nM; that for `C[C@@H]1CN(C(=O)CNC(=O)/C=C/c2ccc(C(F)(F)F)cc2F)[C@@H](c2ccccc2)CN1CC(C)(C)C(=O)O` [I-346], 1040 nM.

As to `CC(CN1C[C@H](c2ccccc2)N(C(=O)CNC(=O)/C=C/c2ccc(C(F)(F)F)cc2F)C[C@H]1C)C(=O)O` (stereo partly shown) [I-347], the IC50 (phenylalanine uptake) was determined as 2690 nM. Still for that read-out and setting: the result for `C[C@H]1[C@H](c2ccccc2)N(C(=O)CNC(=O)/C=C/c2ccc(C(F)(F)F)cc2F)CCN1CCCC(=O)O` [I-352] reads 3260 nM. Turning to `C[C@@H]1CN(C(=O)CNC(=O)/C=C/c2ccc(C(F)(F)F)cc2F)[C@@H](c2cccs2)CN1CCCC(=O)O` [I-357], the half-inhibitory concentration (IC50) (phenylalanine uptake) was 107 nM. Still for that read-out and setting: the same measure for `CN1CCN(C(=O)CNC(=O)/C=C/c2ccc(C(F)(F)F)cc2F)CC1c1cccc(CC(=O)O)c1` (stereo not shown) [I-358]: 223 nM; for `O=C(/C=C/c1ccc(C(F)(F)F)cc1F)NCC(=O)N1CCCC(N2CC[C@@H](C(=O)O)C2)C1` (stereo partly shown) [I-359]: 1110 nM; for `O=C(/C=C/c1ccc(C(F)(F)F)cc1F)NCC(=O)N1CCCC(N2CC[C@H](C(=O)O)C2)C1` (stereo partly shown) [I-360]: 2860 nM.

As to `O=C(O)C[C@H]1CCN(C2CCCN(C(=O)CNC(=O)/C=C/c3ccc(C(F)(F)F)cc3F)C2)C1` (stereo partly shown) [I-361], where the note is “phenylalanine uptake”, the IC50 is 879 nM.

`O=C(O)C[C@@H]1CCN(C2CCCN(C(=O)CNC(=O)/C=C/c3ccc(C(F)(F)F)cc3F)C2)C1` (stereo partly shown) [I-362]: the IC50 (phenylalanine uptake) came out at 1400 nM. On the same count and under the same terms, the same measure for `O=C(O)CCCN1CCN(C(=O)CNC(=O)/C=C/c2ccc(C(F)(F)F)cc2F)C(C2CCCCC2)C1` (stereo not shown) [I-365]: 69 nM. For `C[C@H]1CN(CCCC(=O)O)C[C@H](c2ccccc2)N1C(=O)CNC(=O)/C=C/c1ccc(C(F)(F)F)cc1F` [I-370], the 50% inhibitory concentration (IC50) under setting [1] amounted to 143 nM. As to `C[C@@H]1CN(CCCC(=O)O)C[C@H](c2ccccc2)N1C(=O)CNC(=O)/C=C/c1ccc(C(F)(F)F)cc1F` [I-371], the IC50 under setting [1] was found to be 3380 nM. Same read-out and setting: the same measure for `CNC(=O)Cc1cnn2c1CN(C(=O)CNC(=O)/C=C/c1ccc(C(F)(F)F)cc1)CC2` [I-374]: 54 nM. On the same count and under the same terms, the same measure for `CNC(=O)Cc1nc2c(s1)CCN(C(=O)CNC(=O)/C=C/c1ccc(C(F)(F)F)cc1F)C2` [I-376]: 77 nM; for `CNC(=O)Cc1ccc2c(n1)CCN(C(=O)CNC(=O)/C=C/c1ccc(C(F)(F)F)cc1)C2` [I-377]: 48 nM. Still for that read-out and setting: the same measure for `O=C(/C=C/c1ccc(C(F)(F)F)cc1F)NCC(=O)N1CCc2cc(Cc3nn[nH]n3)cc(Cl)c2C1` [I-378, (E)-N-[2-[8-chloro-6-(1,2,3λ4,4-tetraazacyclopenta-2,4-dien-5-ylmethyl)-3,4-dihydro-1H-isoquinolin-2-yl]-2-oxoethyl]-3-[2-fluoro-4-(trifluoromethyl)phenyl]prop-2-enamide]: 232 nM.
